Measured values: publication PMC8036738, “Evaluation of Selective COX-2 Inhibition and In Silico Study of Kuwanon Derivatives Isolated from Morus alba” (International Journal of Molecular Sciences, 2021)
Like-named read-outs stand apart in the source and are kept apart here.

Assays:
Assay type in all cases: biochemical, ovine
COX-1 = target: T1, COX-1 (Ovis aries, UniProt P05979); experiment: in vitro COX-1 enzyme inhibition assay (fluorometric inhibitor screening kit)
T1 construct: purchased BioVision
T1 sequence (P05979 25-600): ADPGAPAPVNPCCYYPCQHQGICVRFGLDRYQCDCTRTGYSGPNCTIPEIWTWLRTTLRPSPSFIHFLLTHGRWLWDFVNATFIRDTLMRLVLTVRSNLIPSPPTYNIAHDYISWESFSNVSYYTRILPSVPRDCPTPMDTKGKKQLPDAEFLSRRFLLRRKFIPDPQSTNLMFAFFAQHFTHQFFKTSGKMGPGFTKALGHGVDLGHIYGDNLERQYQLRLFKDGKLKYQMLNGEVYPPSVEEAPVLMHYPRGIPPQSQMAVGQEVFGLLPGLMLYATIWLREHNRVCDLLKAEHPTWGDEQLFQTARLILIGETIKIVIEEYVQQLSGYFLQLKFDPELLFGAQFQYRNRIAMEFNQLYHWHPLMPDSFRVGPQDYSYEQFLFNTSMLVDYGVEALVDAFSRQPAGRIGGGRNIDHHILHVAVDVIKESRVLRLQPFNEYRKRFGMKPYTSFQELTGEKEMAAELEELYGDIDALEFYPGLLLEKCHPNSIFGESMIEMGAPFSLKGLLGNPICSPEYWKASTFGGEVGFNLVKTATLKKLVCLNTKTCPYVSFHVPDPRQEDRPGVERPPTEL
Protocol: (§1) Dimethyl sulfoxide (DMSO) and COX-1/2 Inhibitor Screening Kit (BioVison, California, CA, USA) were used according to the manufacturer’s instructions. All other reagents used were of the highest purity commercially available. All samples were dissolved in DMSO at a concentration of 100 mM.
(§2) The ability of the test compounds to inhibit COX-1 and COX-2 isoenzymes in vitro was determined using a Biovision fluorometric COX-1/-2 inhibitor screening assay kit. Briefly, the COX assay buffer (75 μL), COX cofactor working solution (2 μL), COX probe solution (1 μL), recombinant COX-1 or COX-2 (1 μL), arachidonic acid/NaOH solution (10 μL), and test solution (10 μL) were mixed in a 96-well plate, and the fluorescence kinetics were measured for 10 min at 25 °C. […] Fluorescence was measured using a microplate spectrophotometer (Bio-Tek, Winooski, VT, USA). Two points (T1 and T2) in the linear range of the plot were used to obtain the corresponding fluorescence values (RFU1 and RFU2). Then, the slope for all samples (S) was calculated by dividing the net ΔRFU (RFU2 − RFU1) values by the time ΔT (T2 − T1) using the following equation: Relative inhibition (%) = ((slope of the enzyme control − slope of S)/(slope of the enzyme control)) × 100.
(§3) The samples were evaluated in triplicates at five different concentrations.

COX-2 [1] = experiment: in vitro COX-2 enzyme inhibition assay (fluorometric inhibitor screening kit)
Protocol: as §1, §2, §3

COX-2 [2] = target: T2, COX-2 (Homo sapiens, UniProt P35354); experiment: as above
T2 sequence (P35354 18-604): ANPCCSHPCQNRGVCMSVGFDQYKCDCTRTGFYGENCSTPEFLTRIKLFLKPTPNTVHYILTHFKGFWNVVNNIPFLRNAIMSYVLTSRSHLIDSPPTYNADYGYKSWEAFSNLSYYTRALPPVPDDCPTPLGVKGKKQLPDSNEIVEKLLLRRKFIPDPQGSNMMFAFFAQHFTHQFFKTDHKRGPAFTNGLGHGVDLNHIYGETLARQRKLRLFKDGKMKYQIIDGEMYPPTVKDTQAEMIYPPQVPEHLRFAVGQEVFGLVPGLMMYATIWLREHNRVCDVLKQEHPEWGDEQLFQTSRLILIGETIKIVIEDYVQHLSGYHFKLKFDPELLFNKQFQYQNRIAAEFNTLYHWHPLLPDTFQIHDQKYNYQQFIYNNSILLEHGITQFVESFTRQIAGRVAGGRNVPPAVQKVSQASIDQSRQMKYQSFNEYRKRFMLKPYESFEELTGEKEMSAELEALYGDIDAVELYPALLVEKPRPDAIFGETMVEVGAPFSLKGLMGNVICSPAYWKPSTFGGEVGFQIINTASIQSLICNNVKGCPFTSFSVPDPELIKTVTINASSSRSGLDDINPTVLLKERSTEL
Protocol: as §1, §2, §3

[3] = triplicates at five concentrations, read-out: IC50 COX-1

Row | Structure (SMILES) | IC50 (COX-1; [3]) | SI (selectivity index, COX-1 IC50/COX-2 IC50) (COX-2 [1]) | COX-2 inhibition activity (in words) (COX-2 [2]) | IC50 (COX-1)
1 | CC(C)=CCC/C(C)=C/Cc1cc(C2CC(=O)c3c(O)cc(O)cc3O2)c(O)cc1O (stereo not shown) [Kuwanon E, kuwanon E] | 46 µM | 1.4 |  | 
2 | CC(C)=CCc1c(O)ccc(C(=O)C2C(c3c(O)cc(O)c4c(=O)c(CC=C(C)C)c(-c5ccc(O)cc5O)oc34)C=C(C)CC2c2ccc(O)cc2O)c1O (stereo not shown) [Kuwanon H, kuwanon H] | 37 µM |  |  | 
3 | CC(C)=CCc1c(-c2ccc(O)cc2O)oc2c(C3C=C(C)CC(c4ccc(O)cc4O)C3C(=O)c3ccc(O)cc3O)c(O)cc(O)c2c1=O (stereo not shown) [Kuwanon G, kuwanon G] | > 100 µM |  | no COX-2 inhibition activity | 
4 | CC(C)=CCc1c(-c2ccc(O)cc2O)oc2c(CC=C(C)C)c(O)cc(O)c2c1=O [Kuwanon C, kuwanon C] |  |  |  | 67 µM
5 | CC(C)=CCc1c(-c2ccc3c(c2O)C=CC(C)(C)O3)oc2cc(O)cc(O)c2c1=O [Kuwanon B, kuwanon B] | 36 µM | 1.3 |  | 
6 | CC(C)=CCc1c(-c2ccc(O)c3c2OC(C)(C)C=C3)oc2cc(O)cc(O)c2c1=O [Kuwanon A, kuwanon A] | > 100 µM | >7.1 |  | 
